According to patent US6814953B2, “Bronchodilating compositions and methods” (Dey L.P., priority 2001, dated 2004):
Values after ≈ are worked out from the molar mass of the structure shown.

Columns and labels:
[1] = Estimated shelf-life of formoterol in the compositions (Arrhenius kinetics); type: physicochemical; details: in the compositions provided herein
Description: (§1) Stability samples of the solutions prepared in EXAMPLES 1 and 2 were placed in scintillation vials with teflon-lined caps and stored in stability ovens at accelerated temperatures. At selected time points, aliquots of the samples were removed from the scintillation vials.

[2] = Decomposition kinetics of formoterol in aqueous solution (stability testing by HPLC at accelerated temperatures); type: physicochemical
Description: In the embodiments herein, the compositions have a pH of about 2.0 to about 8.0. In other embodiments, the compositions have a pH of about 4.0 to about 6.0, or about 4.5 to about 5.5. In certain of the above embodiments, the compositions are formulated at a pH of about 4, 4.4 or 4.6 up to about 5.5, 5.7 or 6. In other embodiments, the pH is about 5.0.
In other of the above embodiments, the compositions further contain a buffer, including, but not limited to, citric acid/phosphate, acetate, barbital, borate, Britton-Robinson, cacodylate, citrate, collidine, formate, maleate, Mcllvaine, phosphate, Prideaux-Ward, succinate, citrate-phosphate-borate (Teorell-Stanhagen), veronal acetate, MES (2-(N-morpholino)ethanesulfonic acid), BIS-TRIS (bis(2-hydroxyethyl)iminotris(hydroxymethyl)methane), ADA (N-(2-acetamido)-2-iminodiacetic acid), ACES (N-(carbamoylmethyl)-2-aminoethanesulfonic acid), PIPES (piperazirie-N,N′-bis(2-ethanesulfonic acid)), MOPSO (3-(N-morpholino)-2-hydroxypropanesulfonic acid), BIS-TRIS PROPANE (1,3-bis(tris(hydroxymethyl)methylamino)propane), BES (N,N-bis(2-hydroxyethyl)-2-aminoethanesulfonic acid), MOPS (3-(N-morpholino)propanesulfonic acid), TES (N-tris(hydroxymethyl)methyl-2-aminoethanesulfonic acid), HEPES (N-(2-hydroxyethyl)piperazine-N′-(2-ethanesulfonic acid), DIPSO (3-(N,N-bis(2-hydroxyethyl)amino)-2-hydroxypropanesulfonic acid), MOBS (4-(N-morpholino)butanesulfonic acid), TAPSO (3-(N-tris(hydroxymethyl)methylamino)-2-hydroxypropanesulfonic acid), TRIZMAO (tris(hydroxymethylaminomethane), HEPPSO (N-(2-hydroxyethyl)piperazine-N′-(2-hydroxypropanesulfonic acid), POPSO (piperazine-N,N′-bis(2-hydroxypropanesulfonic acid)), TEA (triethanolamine), EPPS (N-(2-hydroxyethyl)piperazine-N′-(3-propanesulfonic acid), TRICINE (N-tris(hydroxymethyl)methylglycine), GLY-GLY (glycylglycine), BICINE (N;N-bis(2-hydroxyethyl)glycine), HEPBS (N-(2-hydroxyethyl)piperazine-N′-(4-butanesulfonic acid)), TAPS (N-tris(hydroxymethyl)methyl-3-aminopropanesulfonic acid), AMPD (2-amino-2-methyl-1,3-propanediol), and/or any other buffers known to those of skill in the art. In one embodiment, the buffer is citric acid/phosphate buffer, acetate buffer, citrate buffer or phosphate buffer. In another embodiment, the buffer is a citrate buffer (citric acid/sodium citrate). […] Buffer concentrations for use herein include from about 0 or 0.01 mM to about 150 mM, or about 1 mM to about 20 mM. In one embodiment, the buffer concentration is about 5 mM. In another embodiment, the buffer concentration is about 1 mM to about 50 mM, or about 20 mM. […] The particular buffer and buffer concentration of a given composition for long term storage provided herein may be determined empirically using standard stability assays well known to those of skill in the art (see, e.g., the Examples).
The solutions were stored at 60° C.
as §1

[3] = patients with reversible obstructive respiratory diseases; cited from earlier work

COc1ccc(CC(C)NCC(O)c2ccc(O)c(NC=O)c2)cc1 (racemic) [formoterol, 2-hydroxy-5-((1RS)-1-hydroxy-2-(((1RS)-2-(p-methoxyphenyl)-1-methylethyl)amino)ethyl)formanilide]
estimated shelf-life ([1]; 5° C.): about 6.2 years | estimated shelf-life ([1]; 25° C.): about 7.5 months | solubility (physchem; aqueous buffer): ~2.2 mg/mL (≈ 6.39 mM) | solubility (physchem; pH 3, aqueous buffer): ~4.8 mg/mL (≈ 13.9 mM) | solubility (physchem; pH 4, aqueous buffer): ~3 mg/mL (≈ 8.71 mM) | solubility (physchem; water): ~2 mg/mL (≈ 5.81 mM) | pH at which decomposition in aqueous solution is slowest ([2]; 60° C., buffer concentration 5 mM, ionic strength 0.05): about 5.0 | rate constant (kobs) for decomposition of an aqueous solution ([2]; 60° C., pH 3, buffer concentration 5 mM, ionic strength 0.05): approximately 0.62 day^−1 | rate constant (kobs) for decomposition of an aqueous solution ([2]; 60° C., pH 4, buffer concentration 5 mM, ionic strength 0.05): ~0.11 day⁻¹ | rate constant (kobs) for decomposition of an aqueous solution ([2]; 60° C., pH 5, buffer concentration 5 mM, ionic strength 0.05): ~0.044 day⁻¹ | rate constant (kobs) for decomposition of an aqueous solution ([2]; 60° C., pH 7, buffer concentration 5 mM, ionic strength 0.05): ~0.55 day⁻¹ | effect of increasing buffer concentration from 5 mM to 20 mM on rate constant of decomposition ([2]; low and approximately neutral conditions (pH)): increased the rate constant of decomposition significantly | effect of increasing buffer concentration from 5 mM to 20 mM on rate constant of decomposition ([2]; pH region of about 4.5 to about 5.5): no noticeable differences in rate constant | duration of bronchodilatory effect [3]: greater than 12 hours | onset of bronchodilatory effect [3]: 1 to 3 min
